Data reported in patent publication US20240158446A1, “CYCLIC COMPOUND HAVING SELECTIVE INHIBITORY ACTION ON KRAS OVER HRAS AND NRAS” (CHUGAI SEIYAKU KABUSHIKI KAISHA, priority 2021, published 2024).
Like-named read-outs stand apart in the source and are kept apart here. *1 amine or outer side, *2 acyl side, *3 side chain or, on linkers, in order; H or OH if unused. Where a SMILES comes first, the peptide text is derived from it. Bridges are numbered along the chain shown (N, C = ends). [ ]: non-standard residue; d: D form. The star is where a group is joined. hPhe(3-Cl-4-CF3) = N[C@@H](CCc1ccc(C(F)(F)F)c(Cl)c1)C(=O)O; X31 = COCCCN([C@@H](Cc1ccc(C(F)(F)F)cc1)C(=O)[*:2])[*:1]; NPrPhe(4-CF3) = CCCN[C@@H](Cc1ccc(C(F)(F)F)cc1)C(=O)O; NMeGly(cPent) = CN[C@H](C(=O)O)C1CCCC1; Pro(4,4-F2) = O=C(O)[C@@H]1CC(F)(F)CN1; NMeD = CN[C@@H](CC(=O)O)C(=O)O; NMeL = CN[C@@H](CC(C)C)C(=O)O; Morpholide = C1CN(*)CCO1; Ac5c = NC1(C(=O)O)CCCC1; Ac4c = NC1(C(=O)O)CCC1; Sar = CNCC(=O)O

Tests used:
[1] = biological target: GDP-bound KRAS wild-type protein (Homo sapiens, UniProt P01116); experiment: Binding to KRAS by surface plasmon resonance (SPR), Single Cycle Kinetics; details: GDP-bound KRAS wild-type protein, read-out: KRAS KD
[2] = biological target: GDP-bound NRAS wild-type protein (Homo sapiens, UniProt P01111); experiment: Binding to NRAS by surface plasmon resonance (SPR), Single Cycle Kinetics; details: SPR, GDP-bound NRAS wild-type protein vs GDP-bound KRAS wild-type protein
[3] = biological target: GDP-bound HRAS wild-type protein (Homo sapiens, UniProt P01112); experiment: Binding to HRAS by surface plasmon resonance (SPR), Single Cycle Kinetics; details: SPR, GDP-bound HRAS wild-type protein vs GDP-bound KRAS wild-type protein
[4] = SPR Single Cycle Kinetics, 1:1 binding model
[5] = SPR, Single Cycle Kinetics, 1:1 binding model

GDP-bound NRAS wild-type protein, sequence (P01111 whole entry): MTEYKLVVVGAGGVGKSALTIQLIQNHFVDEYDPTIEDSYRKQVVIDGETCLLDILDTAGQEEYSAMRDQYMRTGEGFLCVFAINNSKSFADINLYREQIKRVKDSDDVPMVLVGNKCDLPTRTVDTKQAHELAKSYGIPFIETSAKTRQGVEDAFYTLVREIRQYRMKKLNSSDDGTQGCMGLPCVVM
GDP-bound HRAS wild-type protein, sequence (P01112 whole entry): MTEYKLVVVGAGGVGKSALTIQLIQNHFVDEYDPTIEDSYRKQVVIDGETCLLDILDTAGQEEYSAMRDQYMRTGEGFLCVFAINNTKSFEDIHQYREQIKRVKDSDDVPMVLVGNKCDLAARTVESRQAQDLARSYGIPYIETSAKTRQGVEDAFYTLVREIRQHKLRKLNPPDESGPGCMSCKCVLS
GDP-bound KRAS wild-type protein, sequence (P01116 whole entry): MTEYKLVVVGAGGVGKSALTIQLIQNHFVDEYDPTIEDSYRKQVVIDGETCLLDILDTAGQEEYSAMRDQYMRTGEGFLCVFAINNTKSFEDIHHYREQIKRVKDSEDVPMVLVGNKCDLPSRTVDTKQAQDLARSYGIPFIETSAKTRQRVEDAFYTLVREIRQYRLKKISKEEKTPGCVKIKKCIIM

Row | Structure (SMILES) | Kd [1, 4] [nM] | NRAS/KRAS (ratio of KD value for NRAS to KD value for KRAS) [2] | HRAS/KRAS (ratio of KD value for HRAS to KD value for KRAS) [3] | Kd ([1]; SPR, Single Cycle Kinetics) [nM] | also measured
1 | CCCN1C(=O)CN(C)C(=O)CNC(=O)[C@H]([C@@H](C)CC)NC(=O)[C@H](CC(C)C)N(C)C(=O)C[C@@H](C(=O)N2CCOCC2)NC(=O)[C@H](C2CCCC2)N(C)C(=O)C2(CCC2)NC(=O)[C@@H]2CC(F)(F)CN2C(=O)[C@H](CCc2ccc(C(F)(F)F)c(Cl)c2)NC(=O)CN(C)C(=O)[C@@H]1Cc1ccc(C(F)(F)F)cc1 [PP0328] ([NMeL]IG[Sar][NPrPhe(4-CF3)][Sar][hPhe(3-Cl-4-CF3)][Pro(4,4-F2)][Ac4c][NMeGly(cPent)]D-Morpholide; lactam N-11) | 1.6 | B (a compound having 3 or more and less than 10 is denoted as B) | B (a compound having 3 or more and less than 10 is denoted as B) | – | –
2 | CCO[C@H]1CCN2C(=O)[C@H](CCc3cc(F)c(C(F)(F)F)c(F)c3)NC(=O)CN(C)C(=O)[C@H](Cc3ccc(C(F)(F)F)cc3)N3CCCCC[C@@H](C3=O)N(C)C(=O)CN(C)C(=O)[C@H]([C@@H](C)CC)NC(=O)[C@H](CC(C)C)N(C)C(=O)C[C@@H](C(=O)N3CCOCC3)N(C)C(=O)[C@H](C3CCCC3)N(C)C(=O)C3(CCC3)NC(=O)[C@H]12 [PP1068] | – | A (a compound having 10 or more and less than 20 is denoted as A) | B (a compound having 3 or more and less than 10 is denoted as B) | 1.1 | –
3 | C#CC[C@H]1C(=O)N[C@@H]([C@@H](C)CC)C(=O)N(C)CC(=O)N(C)[C@H]2CCCCCN(C2=O)[C@@H](Cc2ccc(C(F)(F)F)cc2)C(=O)N(C)CC(=O)N[C@@H](CCc2cc(F)c(C(F)(F)F)c(F)c2)C(=O)N2C[C@H](OCC)C[C@H]2C(=O)NC2(CCC2)C(=O)N(C)[C@@H](C2CCCC2)C(=O)N(C)[C@H](C(=O)N(C)C)CC(=O)N1C [PP0666] | 0.33 | – | – | – | NRAS/KRAS (ratio of KD value with respect to NRAS to KD value with respect to KRAS) [2]: B (a compound having 3 or more and less than 10 is denoted as B); HRAS/KRAS (ratio of KD value with respect to HRAS to KD value with respect to KRAS) [3]: B (a compound having 3 or more and less than 10 is denoted as B)
4 | CCO[C@@H]1C[C@H]2C(=O)NC3(CCC3)C(=O)N(C)[C@@H](C3CCCC3)C(=O)N(C)[C@H](C(=O)N(C)C)CC(=O)N(C)[C@@H](CC)C(=O)N[C@@H]([C@@H](C)CC)C(=O)N(C)CC(=O)N(C)[C@H]3CCCCN(C3=O)[C@@H](Cc3ccc(C(F)(F)F)cc3)C(=O)N(C)CC(=O)N[C@@H](CCc3ccc(C(F)(F)F)c(OC)c3)C(=O)N2C1 [PP0884] | – | C (A compound having a KD ratio of 0.1 or more and less than 3 is denoted as C) | C (A compound having a KD ratio of 0.1 or more and less than 3 is denoted as C) | 0.022 | –
5 | CCO[C@@H]1C[C@H]2C(=O)N(C)C3(CCC3)C(=O)N(C)[C@@H](C(CC)CC)C(=O)N(C)[C@H](C(=O)N(C)C)CC(=O)N(C)[C@@H](COC)C(=O)N[C@@H]([C@@H](C)CC)C(=O)N(C3CC3)CC(=O)N(C)[C@H]3C/C=C\CCN(C3=O)[C@@H](CC3CCCCC3)C(=O)N(C)CC(=O)N[C@@H](CCc3ccc(C(F)(F)F)c(OC)c3)C(=O)N2C1 [PP2339] | – | A (a compound having 10 or more and less than 20 is denoted as A) | A (a compound having 10 or more and less than 20 is denoted as A) | 2.6 | –
6 | CC[C@H](C)[C@@H]1NC(=O)[C@H](CC(F)(F)F)N(C)C(=O)C[C@@H](C(=O)N2CCOCC2)N(C)C(=O)[C@H](C2CCCC2)N(C)C(=O)C2(CCCC2)NC(=O)[C@@H]2CCCN2C(=O)[C@H](CCc2cc(F)c(C(F)(F)F)c(F)c2)NC(=O)CN(C)C(=O)[C@H](Cc2ccc(C(F)(F)F)cc2)N2CCCC[C@@H](C2=O)N(C)C(=O)CN(C)C1=O [PP0594] | 0.073 | – | – | – | NRAS/KRAS (ratio of KD value with respect to NRAS to KD value with respect to KRAS) [2]: C (A compound having a KD ratio of 0.1 or more and less than 3 is denoted as C); HRAS/KRAS (ratio of KD value with respect to HRAS to KD value with respect to KRAS) [3]: B (a compound having 3 or more and less than 10 is denoted as B)
7 | CC[C@H](C)[C@@H]1NC(=O)[C@H](CC(C)C)N(C)C(=O)C[C@@H](C(=O)N2CCOCC2)N(C)C(=O)[C@H](C2CCCC2)N(C)C(=O)C2(CCCC2)NC(=O)[C@@H]2CCCN2C(=O)[C@H](CCc2ccc(C(F)(F)F)c(Cl)c2)NC(=O)CN(C)C(=O)[C@H](Cc2ccc(C(F)(F)F)cc2)N(CCCOC)C(=O)CN(C)C(=O)CN(C)C1=O [PP0133] ([NMeL]I[Sar][Sar][X31][Sar][hPhe(3-Cl-4-CF3)]P[Ac5c][NMeGly(cPent)][NMeD]-Morpholide; lactam N-11) | 0.08 | B (a compound having 3 or more and less than 10 is denoted as B) | C (A compound having a KD ratio of 0.1 or more and less than 3 is denoted as C) | – | –
8 | CCC[C@H]1C(=O)N[C@@H]([C@@H](C)CC)C(=O)N(C)CC(=O)N(C)[C@H]2C/C=C\CCN(C2=O)[C@@H](Cc2ccc(C(F)(F)F)cc2)C(=O)N(C)CC(=O)N[C@@H](CCc2ccc(Cl)c(Cl)c2)C(=O)N2CCCCC[C@H]2C(=O)NC2(CC(C)(C)C2)C(=O)N(C)[C@@H](C(CC)CC)C(=O)N(C)[C@H](C(=O)N(C)C)CC(=O)N1C [PP3031] | – | AA (a compound having 20 or more is denoted as AA) | A (a compound having 10 or more and less than 20 is denoted as A) | 1.9 | –
9 | CCO[C@@H]1C[C@H]2C(=O)NC3(CC(C)(C)C3)C(=O)N(C)[C@@H](C(CC)CC)C(=O)N(C)[C@H](C(=O)N(C)C)CC(=O)N(C)[C@@H](CC(C)C)C(=O)N[C@@H]([C@@H](C)CC)C(=O)N(C)CC(=O)N(C)[C@H]3C/C=C\CCN(C3=O)[C@@H](Cc3ccc(C(F)(F)F)cc3)C(=O)N(C)CC(=O)N[C@@H](CCc3ccc(C(F)(F)F)c(OC)c3)C(=O)N2C1 [PP2161] | – | AA (a compound having 20 or more is denoted as AA) | A (a compound having 10 or more and less than 20 is denoted as A) | 0.2 | –
10 | CCO[C@@H]1C[C@H]2C(=O)NC3(CCC3)C(=O)N(C)[C@@H](C3CCCC3)C(=O)N(C)[C@H](C(=O)N(C)CCOC)CC(=O)N(C)[C@@H](CC)C(=O)N[C@@H]([C@@H](C)CC)C(=O)N(C)CC(=O)N(C)[C@H]3C/C=C\CCN(C3=O)[C@@H](Cc3ccc(C(F)(F)F)cc3)C(=O)N(C)CC(=O)N[C@@H](CCc3cc(F)c(C(F)(F)F)c(F)c3)C(=O)N2C1 [PP1316, (2S,8S,12R,14S,20S,23S,27S,30S,36S,38Z)-20-cyclopentyl-8-[2-[3,5-difluoro-4-(trifluoromethyl)phenyl]ethyl]-12-ethoxy-27-ethyl-N-(2-methoxyethyl)-N,4,19,22,26,32,35-heptamethyl-30-[(1S)-1-methylpropyl]-3,6,9,15,18,21,25,28,31,34,42-undecaoxo-2-[[4-(trifluoromethyl)phenyl]methyl]spiro[1,4,7,10,16,19,22,26,29,32,35-undecazatricyclo[34.5.1.0^10,14]dotetracont-38-ene-17,1′-cyclobutane]-23-carboxamide] | – | – | – | – | Kd [1, 5]: 0.072 nM; NRAS/KRAS (ratio of KD value for NRAS to KD value for KRAS) ([2]; KD ratio class): A (a compound having 10 or more and less than 20 is denoted as A); HRAS/KRAS (ratio of KD value for HRAS to KD value for KRAS) ([3]; KD ratio class): A (a compound having 10 or more and less than 20 is denoted as A)
11 | CCO[C@@H]1C[C@H]2C(=O)NC3(CCC3)C(=O)N(C)[C@@H](C3CCCC3)C(=O)N(C)[C@H](C(=O)N3CCOCC3)CC(=O)N(C)[C@@H](CC(C)C)C(=O)N[C@@H]([C@@H](C)CC)C(=O)N(C)CC(=O)N(C)[C@H]3CC/C=C(/C)CN(C3=O)[C@@H](Cc3ccc(C(F)(F)F)cc3)C(=O)N(C)CC(=O)N[C@@H](CCc3cc(F)c(C(F)(F)F)c(F)c3)C(=O)N2C1 [PP1333] | – | – | – | – | Kd [1, 5]: 58 nM; NRAS/KRAS (ratio of KD value for NRAS to KD value for KRAS) ([2]; KD ratio class): C (A compound having a KD ratio of 0.1 or more and less than 3 is denoted as C); HRAS/KRAS (ratio of KD value for HRAS to KD value for KRAS) ([3]; KD ratio class): B (a compound having 3 or more and less than 10 is denoted as B)
12 | CCO[C@@H]1C[C@H]2C(=O)NC3(CC(F)(F)C3)C(=O)N(C)[C@@H](C3CCCC3)C(=O)N(C)[C@H](C(=O)N3CCOCC3)CC(=O)N(C)[C@@H](CC(C)C)C(=O)N[C@@H]([C@@H](C)CC)C(=O)N(C)CC(=O)N(C)[C@H]3CC=C(C)CN(C3=O)[C@@H](Cc3ccc(C(F)(F)F)cc3)C(=O)N(C)CC(=O)N[C@@H](CCc3cc(F)c(C(F)(F)F)c(F)c3)C(=O)N2C1 [PP0828] | – | C (A compound having a KD ratio of 0.1 or more and less than 3 is denoted as C) | C (A compound having a KD ratio of 0.1 or more and less than 3 is denoted as C) | 0.17 | –
13 | CCC[C@H]1C(=O)N[C@@H]([C@@H](C)CC)C(=O)N(C)CC(=O)N(C)[C@H]2C/C=C\CCN(C2=O)[C@@H](Cc2ccc(C)cc2)C(=O)N(C)CC(=O)N[C@@H](CCc2cc(F)c(C(F)(F)F)c(F)c2)C(=O)N2CC3(CC3)C[C@H]2C(=O)NC2(CC(C)(C)C2)C(=O)N(C)[C@@H](CC(F)(F)F)C(=O)N(C)[C@H](C(=O)N(C)C)CC(=O)N1C [PP3003] | – | AA (a compound having 20 or more is denoted as AA) | A (a compound having 10 or more and less than 20 is denoted as A) | 0.72 | –
